In patent US11878012B2, “Compositions and methods for treating traumatic brain injury” (Board of Regents, the University of Texas System, priority 2020, dated 2024):

Key:
[1] = system: pilocarpine-induced seizures; assay: Pilocarpine-induced chemoconvulsant seizure model; type: in vivo, mice; settings: M084 10 mg/kg 30 min before pilocarpine 280 mg/kg, n=8
Description: After administration of scopolamine (1 mg/kg), control mice were pretreated with saline vehicle and then were administered pilocarpine (280 mg/kg) 30 min later.
The muscarinic agonist pilocarpine was used to induce seizures in vivo. Two-month-old mice were injected with scopolamine methylnitrate (1 mg/kg; MP Biomedicals) to block peripheral mAChRs 30 min before administration of pilocarpine hydrochloride (280 mg/kg; Sigma-Aldrich). Drugs were delivered via intraperitoneal injection in 0.9% sterile saline at a total volume equivalent to 1% of the mouse body weight. Control mice were given the same dose of scopolamine followed by vehicle saline 30 min later. […] Peak seizure activity was observed 60 min after pilocarpine delivery with occasional forelimb clonus.

DGGCs = assay: GCaMP6f brain slice Ca2+ imaging of DGGCs after sham or CCI-TBI; type: cell-based, mice
Source text: Neuromodulation of TRPC generates robust Ca2+ influx and facilitates neuronal hyperexcitability. […] To assess the post-injury effect of TRPC channel upregulation on neurons, we used Ca2+ imaging in brain slice to measure excitability as a product of intracellular Ca2+ gating by TRPC1/4/5 channels (FIG. 4). […] Transgenic mice with the GCaMP6f transgene were used to detect changes in cellular Ca2+-activated fluorescence. We hypothesized that DGGC activity increases due to muscarinic stimulation with ACh or direct activation of TRPC4-containing channels with EA. Sensitivity was tested by bath perfusion of ACh or EA to the slice for 5 minutes during Ca2+ imaging to quantify peak amplitude of GCaMP6f fluorescence per cell, duration of Ca2+ influx, and the field-frequency of events (FIG. 4).
Brain slice Ca2+ imaging. Transverse slices (300 μm) of hippocampus were cut with a vibratome (Thermo Scientific Microm HM650V) from Cre-CamK2+/GCamp6f+/− mice. […] Hippocampal slices were maintained in oxygenated ACSF at 30° C. for 60 min, and experiments performed at 28° C. […] Neurons were visually identified with a Nikon FN-1 microscope equipped with a 40× water-immersion objective and infrared differential interference contrast. GCaMP6f fluorescence was obtained using a SOLA Light Engine Illumination source (Lumecor) with an output of 3.5W through a 3 mm diameter liquid light guide through a Nikon ET-GFP filter. Nikon Elements software was used for image acquisition through a QIClick CCD camera (Qlmaging) with a Uniblitz Model VMM-D 1 shutter driver. Baseline time series of the DG granule layer were acquired in the presence of bath solution perfusion for 2 min. […] Images were acquired in time series with an exposure time of 200 ms at 2-10 fps at 12-bit rate and no binning. Time-series image stacks were processed with ImageJ. Images were background subtracted using the mean of the 5% lowest pixel values. Ca2+ signal events were quantified for each cell as change in fluorescence divided by the baseline fluorescence (ΔF/FO) after background subtraction. ROI signals were detrended before quantification to account for drift due to gradual photobleaching of the background.

TRPC3 = biological target: T1, TRPC3 (Homo sapiens, UniProt Q13507); settings: description; cited from earlier work
T1 sequence (Q13507 1-921): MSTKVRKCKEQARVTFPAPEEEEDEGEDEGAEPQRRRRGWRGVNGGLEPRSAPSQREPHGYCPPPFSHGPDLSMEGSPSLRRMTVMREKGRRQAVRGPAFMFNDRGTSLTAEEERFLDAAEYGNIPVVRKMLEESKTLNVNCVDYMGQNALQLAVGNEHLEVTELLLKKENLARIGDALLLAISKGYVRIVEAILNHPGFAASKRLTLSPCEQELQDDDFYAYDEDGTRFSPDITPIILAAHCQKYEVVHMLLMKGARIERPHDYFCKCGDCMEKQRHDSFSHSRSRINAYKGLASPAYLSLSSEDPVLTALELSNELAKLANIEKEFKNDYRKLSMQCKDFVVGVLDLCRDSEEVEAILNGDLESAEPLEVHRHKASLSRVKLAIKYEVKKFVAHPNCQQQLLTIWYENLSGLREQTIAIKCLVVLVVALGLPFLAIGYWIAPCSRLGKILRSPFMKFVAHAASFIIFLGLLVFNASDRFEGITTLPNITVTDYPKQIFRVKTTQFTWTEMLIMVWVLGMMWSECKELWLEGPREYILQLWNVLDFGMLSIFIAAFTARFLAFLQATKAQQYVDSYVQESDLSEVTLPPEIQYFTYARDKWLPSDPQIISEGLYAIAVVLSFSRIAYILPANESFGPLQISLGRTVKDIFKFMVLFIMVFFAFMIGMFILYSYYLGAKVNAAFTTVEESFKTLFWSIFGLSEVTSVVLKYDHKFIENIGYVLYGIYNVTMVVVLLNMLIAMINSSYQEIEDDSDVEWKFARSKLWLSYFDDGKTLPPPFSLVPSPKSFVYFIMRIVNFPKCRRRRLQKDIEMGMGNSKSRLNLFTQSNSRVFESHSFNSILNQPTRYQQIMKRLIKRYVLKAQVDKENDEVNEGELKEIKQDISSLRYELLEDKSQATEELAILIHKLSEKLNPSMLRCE

CCCCNc1nc2ccccc2[nH]1 [M084, N-butyl-1H-benzimidazol-2-amine]
mean maximum Racine seizure stage [1]: 1.1±0.5 | status epilepticus [1]: not observed in any animal | Ca2+ peak amplitude (DGGCs; EA 1 μM + M084 10 μM, ipsilateral DGGCs from TBI mice): 1.44±0.05 ΔF/F | duration of Ca2+ influx (DGGCs; M084 10 μM added to EA 1 μM): attenuated the duration of influx to baseline levels | effect on TRPC3 (TRPC3): weak inhibitor or antagonist
